ChEMBL document CHEMBL4390660, “Synthesis and biological evaluation of marine alkaloid-oriented β-carboline analogues” (Eur J Med Chem, 2019)

Columns and labels:
[1] = Cytotoxicity against human A875 cells assessed as growth inhibition after 72 hrs by MTT assay; assay type: functional, cell-based; settings: A875, 72 h
[2] = Cytotoxicity against African green monkey MARC145 cells assessed as growth inhibition after 72 hrs by MTT assay; assay type: functional, cell-based; settings: Chlorocebus aethiops, MARC145, 72 h
[3] = test system: SGC-7901; assay: Cytotoxicity against human SGC7901 cells assessed as growth inhibition after 72 hrs by MTT assay; assay type: functional, cell-based; settings: SGC-7901, 72 h
[4] = Cytotoxicity against African green monkey MARC145 cells assessed as growth inhibition at 40 ug/mL after 72 hrs by MTT assay; assay type: functional; settings: Chlorocebus aethiops, MARC145, 72 h; read-out: GI
[5] = test system: HepG2; assay: Cytotoxicity against human HepG2 cells assessed as growth inhibition at 40 ug/mL after 72 hrs by MTT assay; assay type: functional; settings: HepG2, 72 h, read-out: GI
[6] = test system: HepG2; assay: Cytotoxicity against human HepG2 cells assessed as growth inhibition after 72 hrs by MTT assay; assay type: functional, cell-based; settings: HepG2, 72 h
[7] = test system: SGC-7901; assay: Cytotoxicity against human SGC7901 cells assessed as growth inhibition at 40 ug/mL after 72 hrs by MTT assay; assay type: functional; settings: SGC-7901, 72 h, read-out: GI
[8] = Cytotoxicity against human A875 cells assessed as growth inhibition at 40 ug/mL after 72 hrs by MTT assay; assay type: functional; settings: A875, 72 h, read-out: GI

Row | SMILES | IC50 [1] [µM] | IC50 [2] [µM] | IC50 [3] [µM] | inhibition of growth at 40 µg/mL [4] [%] | inhibition of growth at 40 µg/mL [5] [%] | IC50 [6] [µM] | inhibition of growth at 40 µg/mL [7] [%] | inhibition of growth at 40 µg/mL [8] [%]
1 | O=C(c1c[nH]c2ccccc12)c1nccc2c1[nH]c1ccccc12 | 75.8 | > 120 | > 120 | 34.6 | 30.5 | > 120 | 43.2 | 59.1
2 | COc1cc(CNC(=O)c2cc3c([nH]c4ccccc43)c(C(=O)c3c[nH]c4ccccc34)n2)ccc1O | 8.47 | 21.8 | 16.2 | 79.1 | 80.9 | 11.1 | 83.1 | 81.7
3 | O=C(NCCc1cccc(O)c1)c1cc2c([nH]c3ccccc32)c(C(=O)c2c[nH]c3ccccc23)n1 | 11.9 | 13.8 | 17.7 | 83.2 | 86.9 | 8.63 | 88.3 | 87.5
4 | O=C(NCc1ccccn1)c1cc2c([nH]c3ccccc32)c(C(=O)c2c[nH]c3ccccc23)n1 | 42.5 | 33.8 | 43.9 | 66.2 | 79.6 | 26.3 | 69.5 | 70.7
5 | O=C(NCc1ccc(F)cc1)c1cc2c([nH]c3ccccc32)c(C(=O)c2c[nH]c3ccccc23)n1 | 63.1 | 55.1 | 34.5 | 63.8 | 73.9 | 39 | 78.8 | 68.1
6 | O=C(NCc1cccnc1)c1cc2c([nH]c3ccccc32)c(C(=O)c2c[nH]c3ccccc23)n1 | 25.2 | 20.8 | 33.1 | 73.8 | 82.8 | 18.5 | 70.1 | 74.2
7 | O=C(NCCc1c[nH]c2ccccc12)c1cc2c([nH]c3ccccc32)c(C(=O)c2c[nH]c3ccccc23)n1 | 50.4 | 44.1 | 38.6 | 67 | 74.4 | 41 | 76.6 | 77.8
8 | COc1cccc(CCNC(=O)c2cc3c([nH]c4ccccc43)c(C(=O)c3c[nH]c4ccccc34)n2)c1 | > 80 | > 80 | > 80 | 48.4 | 40.1 | > 80 | 39.3 | 16.6
9 | COc1ccc(NC(=O)c2cc3c([nH]c4ccccc43)c(C(=O)c3c[nH]c4ccccc34)n2)cc1 | 65.4 | > 85 | > 85 | 42 | 44.8 | > 85 | 41.2 | 72.1
10 | O=C(NCc1ccccc1)c1cc2c([nH]c3ccccc32)c(C(=O)c2c[nH]c3ccccc23)n1 | 56.4 | 42.8 | 39.9 | 67.4 | 77.3 | 36.2 | 79 | 75.5
11 | COc1ccc(CCNC(=O)c2cc3c([nH]c4ccccc43)c(C(=O)c3c[nH]c4ccccc34)n2)cc1OC | > 75 | > 75 | > 75 | 38.4 | 31.7 | > 75 | 22.1 | 0
12 | O=C(Nc1ccc(F)cc1)c1cc2c([nH]c3ccccc32)c(C(=O)c2c[nH]c3ccccc23)n1 | > 85 | > 85 | > 85 | 47.5 | 34.8 | > 85 | 34 | 20.7
13 | O=C(NCCc1ccccc1)c1cc2c([nH]c3ccccc32)c(C(=O)c2c[nH]c3ccccc23)n1 | 44.8 | 25.9 | 23 | 79.8 | 82.3 | 19.8 | 84.5 | 77.1
14 | O=C(O)c1cc2c([nH]c3ccccc32)c(C(=O)c2c[nH]c3ccccc23)n1 | 48.8 | 41.9 | 67.7 | 72 | 78.4 | 51.8 | 63 | 72.2
15 | O=c1[nH]cc(F)c(=O)[nH]1 [FLUOROURACIL] | 62.1 | 116 | 53.6 | 66.7 | 72.6 | 66.4 | 79.9 | 61
16 | CS(=O)(=O)CCNC(=O)c1cc2c([nH]c3ccccc32)c(C(=O)c2c[nH]c3ccccc23)n1 | 8.43 | 7.19 | 6.82 | 90.2 | 87.3 | 7.69 | 88.5 | 87.9
17 | COC(=O)C(CO)NC(=O)c1cc2c([nH]c3ccccc32)c(C(=O)c2c[nH]c3ccccc23)n1 (stereo not given) | 10.5 | 16.3 | 14.3 | 83.2 | 79 | 9.99 | 82.7 | 83.9
18 | COC(=O)c1cc2c([nH]c3ccccc32)c(C(=O)c2c[nH]c3ccccc23)n1 | > 100 | > 100 | > 100 | 35.9 | 62.7 | > 100 | 48.6 | 36.8
19 | O=C(NCCc1ccc(F)cc1)c1cc2c([nH]c3ccccc32)c(C(=O)c2c[nH]c3ccccc23)n1 | > 80 | 48.8 | 34 | 63 | 72.4 | 38.5 | 76.7 | 33.9
20 | Cc1ccc(CNC(=O)c2cc3c([nH]c4ccccc43)c(C(=O)c3c[nH]c4ccccc34)n2)cc1 | > 85 | 73.2 | 66 | 55 | 63.9 | 65.3 | 64 | 27
